Assay results from the NIST ThermoML archive (doi:10.1021/je0340809).

Experiment: xn = mol fraction of the nth substance listed
Details: 101.3 kPa, Liquid

CN1CCCC1=O [N-methylpyrrolidone] + O
Details | mass density [kg/m3] | speed of sound [m/s] | viscosity [mPa·s]
298.15 K, x2 = 0.0522 | 1029.55 | 1548.8 | 1.721
298.15 K, x2 = 0.1684 | 1032.9 | 1561 | 1.985
298.15 K, x2 = 0.2465 | 1035.15 | 1579.5 | 2.147
298.15 K, x2 = 0.3481 | 1038.13 | 1616.8 | 2.535
298.15 K, x2 = 0.4534 | 1041.65 | 1653.8 | 3.346
298.15 K, x2 = 0.5018 | 1043.41 | 1667.7 | 3.838
298.15 K, x2 = 0.5493 | 1045.11 | 1682 | 4.338
298.15 K, x2 = 0.6504 | 1047.71 | 1711.3 | 5.159
298.15 K, x2 = 0.752 | 1046.06 | 1738.2 | 5.071
298.15 K, x2 = 0.8536 | 1035.21 | 1748.1 | 3.65
298.15 K, x2 = 0.8742 | 1031.43 | 1738.4 | 3.224
298.15 K, x2 = 0.8849 | 1029.24 | 1730.9 | 2.992
298.15 K, x2 = 0.8996 | 1025.97 | 1716.8 | 2.668
298.15 K, x2 = 0.9257 | 1019.43 | 1681.1 | 2.093
298.15 K, x2 = 0.9368 | 1016.38 | 1661 | 1.857
298.15 K, x2 = 0.9557 | 1010.88 | 1621.2 | 1.487
298.15 K, x2 = 0.9641 | 1008.33 | 1600.8 | 1.338
298.15 K, x2 = 0.9754 | 1004.82 | 1571.3 | 1.16
298.15 K, x2 = 0.99 | 1000.21 | 1529.1 | 0.978
308.15 K, x2 = 0.0522 | 1020.49 | 1521.3 | 1.405
308.15 K, x2 = 0.1684 | 1023.58 | 1533.3 | 1.588
308.15 K, x2 = 0.2465 | 1025.1 | 1549.9 | 1.702
308.15 K, x2 = 0.3481 | 1028.58 | 1578.3 | 1.979
308.15 K, x2 = 0.4534 | 1032.02 | 1610.1 | 2.567
308.15 K, x2 = 0.5018 | 1033.74 | 1624.8 | 2.925
308.15 K, x2 = 0.5493 | 1035.39 | 1639.5 | 3.289
308.15 K, x2 = 0.6504 | 1037.97 | 1672 | 3.885
308.15 K, x2 = 0.752 | 1036.73 | 1702.6 | 3.814
308.15 K, x2 = 0.8536 | 1027.32 | 1707.3 | 2.76
308.15 K, x2 = 0.8742 | 1024.02 | 1700.3 | 2.446
308.15 K, x2 = 0.8849 | 1022.1 | 1694.9 | 2.273
308.15 K, x2 = 0.8996 | 1019.23 | 1685.4 | 2.034
308.15 K, x2 = 0.9257 | 1013.52 | 1661.1 | 1.609
308.15 K, x2 = 0.9368 | 1010.86 | 1647.4 | 1.435
308.15 K, x2 = 0.9557 | 1006.06 | 1618.8 | 1.16
308.15 K, x2 = 0.9641 | 1003.83 | 1603.6 | 1.051
308.15 K, x2 = 0.9754 | 1000.77 | 1580.6 | 0.92
308.15 K, x2 = 0.99 | 996.769 | 1546.1 | 0.785
318.15 K, x2 = 0.0522 | 1011.19 | 1480.9 | 1.232
318.15 K, x2 = 0.1684 | 1014.09 | 1493 | 1.35
318.15 K, x2 = 0.2465 | 1016.08 | 1508.9 | 1.429
318.15 K, x2 = 0.3481 | 1018.81 | 1535.9 | 1.613
318.15 K, x2 = 0.4534 | 1022.08 | 1566.5 | 2.03
318.15 K, x2 = 0.5018 | 1023.72 | 1580.9 | 2.287
318.15 K, x2 = 0.5493 | 1025.31 | 1595.4 | 2.547
318.15 K, x2 = 0.6504 | 1027.9 | 1628.2 | 2.973
318.15 K, x2 = 0.752 | 1027.12 | 1661.2 | 2.905
318.15 K, x2 = 0.8536 | 1019.09 | 1674.5 | 2.117
318.15 K, x2 = 0.8742 | 1016.22 | 1670.7 | 1.882
318.15 K, x2 = 0.8849 | 1014.55 | 1667.3 | 1.754
318.15 K, x2 = 0.8996 | 1012.06 | 1660.9 | 1.576
318.15 K, x2 = 0.9257 | 1007.08 | 1643.6 | 1.261
318.15 K, x2 = 0.9368 | 1004.77 | 1633.5 | 1.13
318.15 K, x2 = 0.9557 | 1000.59 | 1611.9 | 0.928
318.15 K, x2 = 0.9641 | 998.66 | 1600.4 | 0.845
318.15 K, x2 = 0.9754 | 996.013 | 1582.7 | 0.747
318.15 K, x2 = 0.99 | 992.557 | 1556.1 | 0.645
328.15 K, x2 = 0.0522 | 1002.19 | 1451.9 | 1.124
328.15 K, x2 = 0.1684 | 1004.9 | 1463.8 | 1.194
328.15 K, x2 = 0.2465 | 1006.77 | 1478.8 | 1.234
328.15 K, x2 = 0.3481 | 1009.34 | 1504.2 | 1.357
328.15 K, x2 = 0.4534 | 1012.42 | 1533.2 | 1.647
328.15 K, x2 = 0.5018 | 1013.98 | 1547.1 | 1.827
328.15 K, x2 = 0.5493 | 1015.5 | 1561.1 | 2.011
328.15 K, x2 = 0.6504 | 1018.05 | 1593.5 | 2.308
328.15 K, x2 = 0.752 | 1017.63 | 1627.4 | 2.241
328.15 K, x2 = 0.8536 | 1010.77 | 1646.4 | 1.645
328.15 K, x2 = 0.8742 | 1008.28 | 1645 | 1.47
328.15 K, x2 = 0.8849 | 1006.83 | 1643.2 | 1.374
328.15 K, x2 = 0.8996 | 1004.66 | 1639.2 | 1.24
328.15 K, x2 = 0.9257 | 1000.32 | 1627.2 | 1.004
328.15 K, x2 = 0.9368 | 998.296 | 1619.9 | 0.907
328.15 K, x2 = 0.9557 | 994.66 | 1603.9 | 0.753
328.15 K, x2 = 0.9641 | 992.982 | 1595.2 | 0.692
328.15 K, x2 = 0.9754 | 990.687 | 1581.7 | 0.618
328.15 K, x2 = 0.99 | 987.705 | 1561.2 | 0.541
338.15 K, x2 = 0.0522 | 993.182 | 1410.7 | 0.987
338.15 K, x2 = 0.1684 | 995.706 | 1422.8 | 1.026
338.15 K, x2 = 0.2465 | 997.455 | 1437.4 | 1.048
338.15 K, x2 = 0.3481 | 999.87 | 1461.9 | 1.129
338.15 K, x2 = 0.4534 | 1002.78 | 1490.2 | 1.332
338.15 K, x2 = 0.5018 | 1004.25 | 1504 | 1.46
338.15 K, x2 = 0.5493 | 1005.71 | 1518 | 1.591
338.15 K, x2 = 0.6504 | 1008.2 | 1551 | 1.799
338.15 K, x2 = 0.752 | 1008.09 | 1587.1 | 1.74
338.15 K, x2 = 0.8536 | 1002.25 | 1613.3 | 1.292
338.15 K, x2 = 0.8742 | 1000.1 | 1614.4 | 1.161
338.15 K, x2 = 0.8849 | 998.836 | 1614.4 | 1.089
338.15 K, x2 = 0.8996 | 996.948 | 1613 | 0.99
338.15 K, x2 = 0.9257 | 993.171 | 1602.6 | 0.813
338.15 K, x2 = 0.9368 | 991.416 | 1602.1 | 0.74
338.15 K, x2 = 0.9557 | 988.261 | 1591.8 | 0.627
338.15 K, x2 = 0.9641 | 986.808 | 1585.9 | 0.58
338.15 K, x2 = 0.9754 | 984.827 | 1576.7 | 0.524
338.15 K, x2 = 0.99 | 982.266 | 1562.4 | 0.467
